Assay results as given in PMC5218480 (PLoS ONE, 2017).

Test system: MV-4-11 cells
Experiment: Gene expression microarray analysis (Affymetrix PrimeView) and GSEA
Format: cell-based, human
Design: RFU PODN (11730768_x_at) / Fold change /veh PODN (11730768_x_at) / RFU LINC00158 (11744669_a_at) / Fold change /veh LINC00158 (11744669_a_at) / RFU DUSP10 (11751237_a_at) / Fold change /veh DUSP10 (11751237_a_at) / RFU ID3 (11757404_x_at) / Fold change /veh ID3 (11757404_x_at) / RFU PLEKHG5 (11737974_s_at) / Fold change /veh PLEKHG5 (11737974_s_at) / RFU LRRC4B (11730491_at) / Fold change /veh LRRC4B (11730491_at) / RFU GIMAP4 (11747438_a_at) / Fold change /veh GIMAP4 (11747438_a_at) / RFU KRT8 (11758183_x_at) / Fold change /veh KRT8 (11758183_x_at) / RFU CNN1 (11734310_a_at) / Fold change /veh CNN1 (11734310_a_at) / RFU VPS37D (11726825_at) / Fold change /veh VPS37D (11726825_at) / RFU C10orf10 (11716522_x_at) / Fold change /veh C10orf10 (11716522_x_at) / RFU KIR2DL2 /// KIR2DL4 /// KIR2DL5A /// KIR2DL5B /// KIR2DS1 /// KIR2DS2 /// KIR2DS3 /// KIR2DS4 /// KIR3DL3 /// KIR3DL3 /// KIR3DS1 (11738374_at) / Fold change /veh KIR2DL2 /// KIR2DL4 /// KIR2DL5A /// KIR2DL5B /// KIR2DS1 /// KIR2DS2 /// KIR2DS3 /// KIR2DS4 /// KIR3DL3 /// KIR3DL3 /// KIR3DS1 (11738374_at) / RFU C1QL1 (11718748_at) / Fold change /veh C1QL1 (11718748_at) / RFU TMPRSS4 (11747572_a_at) / Fold change /veh TMPRSS4 (11747572_a_at) / RFU HAMP (11756126_x_at) / Fold change /veh HAMP (11756126_x_at) / RFU RNFT2 (11725882_a_at) / Fold change /veh RNFT2 (11725882_a_at) / RFU NR4A2 (11747474_a_at) / Fold change /veh NR4A2 (11747474_a_at) / RFU ABCC12 (11746883_a_at) / Fold change /veh ABCC12 (11746883_a_at) / RFU TMEM136 (11760407_x_at) / Fold change /veh TMEM136 (11760407_x_at) / RFU CLDN22 /// WWC2 (11732394_at) / Fold change /veh CLDN22 /// WWC2 (11732394_at) / RFU HLA-DPB1 (11760878_x_at) / Fold change /veh HLA-DPB1 (11760878_x_at) / RFU SPINT1 (11716480_a_at) / Fold change /veh SPINT1 (11716480_a_at) / RFU GAP43 (11754022_s_at) / Fold change /veh GAP43 (11754022_s_at) / RFU A4GNT (11735810_at) / Fold change /veh A4GNT (11735810_at) / RFU PRB3 (11715151_x_at) / Fold change /veh PRB3 (11715151_x_at) / RFU TUBB4B (11761932_at) / Fold change /veh TUBB4B (11761932_at) / RFU CAPN14 (11732068_a_at) / Fold change /veh CAPN14 (11732068_a_at) / RFU TMCC2 (11721928_a_at) / Fold change /veh TMCC2 (11721928_a_at) / RFU IRGQ (11745062_a_at) / Fold change /veh IRGQ (11745062_a_at) / RFU FAM174B (11720279_a_at) / Fold change /veh FAM174B (11720279_a_at) / RFU TMPRSS4 (11748680_a_at) / Fold change /veh TMPRSS4 (11748680_a_at) / RFU FAM212B (11763350_a_at) / Fold change /veh FAM212B (11763350_a_at) / RFU PLEKHG5 (11743358_a_at) / Fold change /veh PLEKHG5 (11743358_a_at) / RFU ZSCAN30 (11745921_a_at) / Fold change /veh ZSCAN30 (11745921_a_at) / RFU CMKLR1 (11741424_a_at) / Fold change /veh CMKLR1 (11741424_a_at) / RFU LOC101060620 /// MAPK8IP1 (11723275_at) / Fold change /veh LOC101060620 /// MAPK8IP1 (11723275_at) / RFU SPTSSB (11747773_x_at) / Fold change /veh SPTSSB (11747773_x_at) / RFU PRSS12 (11739890_at) / Fold change /veh PRSS12 (11739890_at) / RFU BIN1 (11741810_x_at) / Fold change /veh BIN1 (11741810_x_at) / RFU WNT11 (11732464_a_at) / Fold change /veh WNT11 (11732464_a_at) / RFU C10orf10 (11716521_a_at) / Fold change /veh C10orf10 (11716521_a_at) / RFU C5orf56 (11738089_at) / Fold change /veh C5orf56 (11738089_at) / RFU CYB561 (11721691_x_at) / Fold change /veh CYB561 (11721691_x_at) / RFU ANKRD19P (11752326_a_at) / Fold change /veh ANKRD19P (11752326_a_at) / RFU OR2T12 /// OR2T33 /// OR2T8 (11738714_s_at) / Fold change /veh OR2T12 /// OR2T33 /// OR2T8 (11738714_s_at) / RFU VCAN (11748164_a_at) / Fold change /veh VCAN (11748164_a_at) / RFU JSRP1 (11732532_at) / Fold change /veh JSRP1 (11732532_at) / RFU KRTAP10-11 (11738290_x_at) / Fold change /veh KRTAP10-11 (11738290_x_at) / RFU MYO3A (11730013_a_at) / Fold change /veh MYO3A (11730013_a_at) / RFU EBF3 (11725865_a_at) / Fold change /veh EBF3 (11725865_a_at) / RFU CAMK2N1 (11719241_x_at) / Fold change /veh CAMK2N1 (11719241_x_at) / RFU C5orf56 (11738088_a_at) / Fold change /veh C5orf56 (11738088_a_at) / RFU OLFML3 (11715873_a_at) / Fold change /veh OLFML3 (11715873_a_at) / RFU LOC100653217 /// NTM (11731650_a_at) / Fold change /veh LOC100653217 /// NTM (11731650_a_at) / RFU MAPK11 (11762145_a_at) / Fold change /veh MAPK11 (11762145_a_at) / RFU FIZ1 (11724087_x_at) / Fold change /veh FIZ1 (11724087_x_at) / RFU OASL (11726364_x_at) / Fold change /veh OASL (11726364_x_at) / RFU SOX15 (11748057_x_at) / Fold change /veh SOX15 (11748057_x_at) / RFU CD79A (11719716_a_at) / Fold change /veh CD79A (11719716_a_at) / RFU HIST1H1D (11736915_at) / Fold change /veh HIST1H1D (11736915_at) / RFU CASKIN2 (11723855_a_at) / Fold change /veh CASKIN2 (11723855_a_at) / RFU LOC730098 (11760151_x_at) / Fold change /veh LOC730098 (11760151_x_at) / RFU OR4N2 (11742367_at) / Fold change /veh OR4N2 (11742367_at) / RFU PRRT2 (11749266_a_at) / Fold change /veh PRRT2 (11749266_a_at) / RFU SNX32 (11753110_a_at) / Fold change /veh SNX32 (11753110_a_at) / RFU CDHR5 (11726645_a_at) / Fold change /veh CDHR5 (11726645_a_at) / RFU RCAN1 (11760418_a_at) / Fold change /veh RCAN1 (11760418_a_at) / RFU FAM167A (11723789_a_at) / Fold change /veh FAM167A (11723789_a_at) / RFU FAM26E (11764081_at) / Fold change /veh FAM26E (11764081_at) / RFU ISYNA1 (11749810_s_at) / Fold change /veh ISYNA1 (11749810_s_at) / RFU ACY1 (11761880_at) / Fold change /veh ACY1 (11761880_at) / RFU 11764098_at / Fold change /veh 11764098_at / RFU SAMD14 (11745864_x_at) / Fold change /veh SAMD14 (11745864_x_at) / RFU NPB (11741838_a_at) / Fold change /veh NPB (11741838_a_at) / RFU TMPRSS6 (11731388_a_at) / Fold change /veh TMPRSS6 (11731388_a_at) / RFU KRTAP10-2 (11738614_at) / Fold change /veh KRTAP10-2 (11738614_at) / RFU ARHGAP8 /// PRR5-ARHGAP8 (11727945_x_at) / Fold change /veh ARHGAP8 /// PRR5-ARHGAP8 (11727945_x_at) / RFU KRTAP5-7 /// NADSYN1 (11734609_at) / Fold change /veh KRTAP5-7 /// NADSYN1 (11734609_at) / RFU RASL12 (11751679_a_at) / Fold change /veh RASL12 (11751679_a_at) / RFU CDKN2B (11736163_a_at) / Fold change /veh CDKN2B (11736163_a_at) / RFU PRF1 (11729649_at) / Fold change /veh PRF1 (11729649_at) / RFU, ZNF638 /// ZNF638-IT1 / Fold change vs veh, ZNF638 /// ZNF638-IT1 / RFU, PANK3 / Fold change vs veh, PANK3 / RFU, SH3YL1 / Fold change vs veh, SH3YL1 / RFU, ZEB2 / Fold change vs veh, ZEB2 / RFU, NRIP1 / Fold change vs veh, NRIP1 / RFU, PTTG1IP / Fold change vs veh, PTTG1IP / RFU, CAPN2 / Fold change vs veh, CAPN2 / RFU, MED14 / Fold change vs veh, MED14 / RFU, SNORA58 / Fold change vs veh, SNORA58 / RFU, C1orf63 / Fold change vs veh, C1orf63 / RFU, LRRFIP1 / Fold change vs veh, LRRFIP1 / RFU, NDUFAF7 / Fold change vs veh, NDUFAF7 / RFU, SLC12A2 / Fold change vs veh, SLC12A2 / RFU, IBTK / Fold change vs veh, IBTK / RFU, ESF1 / Fold change vs veh, ESF1 / Fold change vs veh, TMEM50B / RFU, TAOK1 / Fold change vs veh, TAOK1 / RFU, ACBD3 / Fold change vs veh, ACBD3 / RFU, TMA16 / Fold change vs veh, TMA16 / RFU, RWDD3 / Fold change vs veh, RWDD3 / RFU, BCAT1 / Fold change vs veh, BCAT1 / RFU, EDEM3 / Fold change vs veh, EDEM3 / RFU, TMEM33 / Fold change vs veh, TMEM33 / RFU, WDR75 / Fold change vs veh, WDR75 / RFU, AHCTF1 / Fold change vs veh, AHCTF1 / RFU, TFRC / Fold change vs veh, TFRC / RFU, ZDHHC17 / Fold change vs veh, ZDHHC17 / RFU, NOM1 / Fold change vs veh, NOM1 / RFU, ARL8B / Fold change vs veh, ARL8B / RFU, ZBTB11 / Fold change vs veh, ZBTB11 / RFU, TAMM41 / Fold change vs veh, TAMM41 / RFU, KIAA1704 /// LOC100996395 / Fold change vs veh, KIAA1704 /// LOC100996395 / RFU, ING1 / Fold change vs veh, ING1 / RFU, TRMT61B / Fold change vs veh, TRMT61B / RFU, FUBP3 / Fold change vs veh, FUBP3 / RFU, TP53 / Fold change vs veh, TP53 / RFU, TNKS2 / Fold change vs veh, TNKS2 / RFU, ZFP14 / Fold change vs veh, ZFP14 / RFU, ACTR2 / Fold change vs veh, ACTR2 / RFU, PPP3R1 / Fold change vs veh, PPP3R1 / RFU, PIK3R1 / Fold change vs veh, PIK3R1 / RFU, HNRNPA1 / Fold change vs veh, HNRNPA1 / RFU, RNF170 / Fold change vs veh, RNF170 / RFU, ZNF28 / Fold change vs veh, ZNF28 / RFU, RNGTT / Fold change vs veh, RNGTT / RFU, OGT / Fold change vs veh, OGT / RFU, BRD1 / Fold change vs veh, BRD1 / RFU, MARS / Fold change vs veh, MARS / RFU, ZNF655 / Fold change vs veh, ZNF655 / RFU, FAHD1 / Fold change vs veh, FAHD1 / RFU, BDP1 / Fold change vs veh, BDP1 / RFU, LRRCC1 / Fold change vs veh, LRRCC1 / RFU, ARID1A / Fold change vs veh, ARID1A / RFU, ZNF146 / Fold change vs veh, ZNF146 / RFU, ZNF330 / Fold change vs veh, ZNF330 / RFU, GPN3 / Fold change vs veh, GPN3 / RFU, C9orf123 / Fold change vs veh, C9orf123 / RFU, N4BP2L2 / Fold change vs veh, N4BP2L2 / RFU, ARFIP1 / Fold change vs veh, ARFIP1 / RFU, FAM179B / Fold change vs veh, FAM179B / RFU, BCL10 / Fold change vs veh, BCL10 / RFU, UHRF1BP1L / Fold change vs veh, UHRF1BP1L / RFU, BET1 / Fold change vs veh, BET1 / RFU, CNOT2 / Fold change vs veh, CNOT2 / RFU, ZNF268 / Fold change vs veh, ZNF268 / Fold change vs veh, ZNF507 / RFU, DGCR2 / Fold change vs veh, DGCR2 / RFU, WDSUB1 / Fold change vs veh, WDSUB1 / Fold change vs veh, HSP90B1 /// MIR3652 / RFU, ADSS / Fold change vs veh, ADSS / RFU, GK / Fold change vs veh, GK / RFU, ZNF148 / Fold change vs veh, ZNF148 / RFU, TAF9 / Fold change vs veh, TAF9 / RFU, SLC1A5 / Fold change vs veh, SLC1A5 / RFU, SLMO2 / Fold change vs veh, SLMO2 / RFU, ABCC4 / Fold change vs veh, ABCC4 / RFU, LOC101060439 /// RAP1B / Fold change vs veh, LOC101060439 /// RAP1B / RFU, RFX7 / Fold change vs veh, RFX7 / RFU, GTPBP10 / Fold change vs veh, GTPBP10 / RFU, CNEP1R1 / Fold change vs veh, CNEP1R1 / RFU, BIVM-ERCC5 /// ERCC5 / Fold change vs veh, BIVM-ERCC5 /// ERCC5 / RFU, ILF3 / Fold change vs veh, ILF3 / RFU 11762660_at / Fold change /veh 11762660_at / RFU VCAN (11757783_s_at) / Fold change /veh VCAN (11757783_s_at) / RFU DDX43 (11728927_at) / Fold change /veh DDX43 (11728927_at) / RFU KRT8 (11758188_x_at) / Fold change /veh KRT8 (11758188_x_at) / RFU NKD1 (11759106_at) / Fold change /veh NKD1 (11759106_at) / RFU SRD5A1 (11742802_a_at) / Fold change /veh SRD5A1 (11742802_a_at) / RFU TPSAB1 /// TPSB2 (11721975_s_at) / Fold change /veh TPSAB1 /// TPSB2 (11721975_s_at) / RFU GSTM3 (11746129_a_at) / Fold change /veh GSTM3 (11746129_a_at) / RFU IL23R (11737362_x_at) / Fold change /veh IL23R (11737362_x_at) / RFU TMEM51 (11727254_a_at) / Fold change /veh TMEM51 (11727254_a_at) / RFU PIWIL2 (11732686_x_at) / Fold change /veh PIWIL2 (11732686_x_at) / RFU ORM1 (11744905_x_at) / Fold change /veh ORM1 (11744905_x_at) / RFU CCDC152 (11743942_at) / Fold change /veh CCDC152 (11743942_at) / RFU ECM1 (11717891_a_at) / Fold change /veh ECM1 (11717891_a_at) / RFU IL23R (11748794_a_at) / Fold change /veh IL23R (11748794_a_at) / RFU TNFAIP8L3 (11732012_x_at) / Fold change /veh TNFAIP8L3 (11732012_x_at) / RFU MBOAT4 (11741988_at) / Fold change /veh MBOAT4 (11741988_at) / RFU 11764193_at / Fold change /veh 11764193_at / RFU TMEM53 (11763286_at) / Fold change /veh TMEM53 (11763286_at) / RFU MAGEB2 (11727129_at) / Fold change /veh MAGEB2 (11727129_at) / RFU TMEM200A (11744735_a_at) / Fold change /veh TMEM200A (11744735_a_at) / RFU CCDC152 (11751479_a_at) / Fold change /veh CCDC152 (11751479_a_at) / RFU FAM211A (11726209_a_at) / Fold change /veh FAM211A (11726209_a_at) / RFU RGS16 (11746705_a_at) / Fold change /veh RGS16 (11746705_a_at) / RFU VCAN (11755009_s_at) / Fold change /veh VCAN (11755009_s_at) / RFU RHOB (11743442_s_at) / Fold change /veh RHOB (11743442_s_at) / RFU RGS16 (11720943_a_at) / Fold change /veh RGS16 (11720943_a_at) / RFU RGS16 (11720944_at) / Fold change /veh RGS16 (11720944_at) / RFU, VPS4B / Fold change vs veh, VPS4B / RFU, CREB1 / Fold change vs veh, CREB1 / RFU, DNAJC13 / Fold change vs veh, DNAJC13 / RFU, GNAQ / Fold change vs veh, GNAQ / RFU, CDK5R1 / Fold change vs veh, CDK5R1 / RFU, ZRANB3 / Fold change vs veh, ZRANB3 / RFU, CUL4A / Fold change vs veh, CUL4A / RFU, CCNY / Fold change vs veh, CCNY / RFU, UFL1 / Fold change vs veh, UFL1 / RFU, COG3 / Fold change vs veh, COG3 / RFU, DIAPH2 / Fold change vs veh, DIAPH2 / RFU, SKA2 / Fold change vs veh, SKA2 / RFU, AFF3 / Fold change vs veh, AFF3 / RFU, LMF1 / Fold change vs veh, LMF1 / RFU, IPO11 / Fold change vs veh, IPO11 / RFU, DFFB / Fold change vs veh, DFFB / RFU, FOXP1 / Fold change vs veh, FOXP1 / RFU, CARD8 / Fold change vs veh, CARD8 / RFU, STRN3 / Fold change vs veh, STRN3 / RFU, ADK / Fold change vs veh, ADK / RFU, RASSF2 / Fold change vs veh, RASSF2 / RFU, WIPF1 / Fold change vs veh, WIPF1 / RFU, LARP1B / Fold change vs veh, LARP1B / RFU, RASA1 / Fold change vs veh, RASA1 / RFU, RB1 / Fold change vs veh, RB1 / RFU, PPFIA1 / Fold change vs veh, PPFIA1 / RFU, MAT2A / Fold change vs veh, MAT2A / RFU, CCT5 / Fold change vs veh, CCT5 / RFU, WDR92 / Fold change vs veh, WDR92 / RFU, CUX1 / Fold change vs veh, CUX1 / RFU, TTC7A / Fold change vs veh, TTC7A / RFU, TMEM135 / Fold change vs veh, TMEM135 / RFU, DEPTOR / Fold change vs veh, DEPTOR / RFU, CPM / Fold change vs veh, CPM / RFU, DNAJB6 / Fold change vs veh, DNAJB6 / RFU, CACNA2D3 / Fold change vs veh, CACNA2D3 / RFU, DTX4 / Fold change vs veh, DTX4 / RFU, TFCP2 / Fold change vs veh, TFCP2 / RFU, GMCL1 /// GMCL1P1 / Fold change vs veh, GMCL1 /// GMCL1P1 / RFU, AEBP2 / Fold change vs veh, AEBP2 / RFU, SNHG1 /// SNORD22 /// SNORD25 /// SNORD26 /// SNORD27 /// SNORD28 /// SNORD29 /// SNORD31 / Fold change vs veh, SNHG1 /// SNORD22 /// SNORD25 /// SNORD26 /// SNORD27 /// SNORD28 /// SNORD29 /// SNORD31 / Fold change (Aza/veh), C12orf56 (ProbeSet 11735607_a_at) / Fold change (ACY-1035/veh), C12orf56 (ProbeSet 11735607_a_at) / Fold change (Aza/veh), FGFR1OP (ProbeSet 11751329_s_at) / Fold change (ACY-1035/veh), FGFR1OP (ProbeSet 11751329_s_at) / Fold change (Aza/veh), VPS36 (ProbeSet 11739960_a_at) / Fold change (ACY-1035/veh), VPS36 (ProbeSet 11739960_a_at) / RFU SYPL1 (11715823_x_at) / Fold change /veh SYPL1 (11715823_x_at) / RFU IGFBP7 (11715501_s_at) / Fold change /veh IGFBP7 (11715501_s_at) / RFU REEP3 (11722064_at) / Fold change /veh REEP3 (11722064_at) / RFU IGLL1 (11728026_x_at) / Fold change /veh IGLL1 (11728026_x_at): dose or concentration left out as unconfirmed
Conditions: ProbeSet 11748335_a_at; LIST B

## Nc1ncn([C@@H]2O[C@H](CO)[C@@H](O)[C@H]2O)c(=O)n1 [azacitidine]
  RFU, SLMO2: 144.00 RFU
